Reference: ChEMBL document CHEMBL5441142, “Probing the Merck KGaA Open Global health library for novel starting points for anti-schistosomal drug discovery” (2024)
Activity calls are given as the source filed them.

Tests used:
Schistosoma mansoni [1] = assay: In vitro activity screen on S. mansoni schistosomula at 10 uM. Compound-induced effects were assessed by quantifying larva motility and phenotype using Roboworm.; format: functional, organism-based; design: test concentration 10 uM, temperature 37 degree C, time incubation 72 h; conditions: Puerto Rican
Schistosoma mansoni [2] = assay: Ex vivo activity screen on S. mansoni adult worms at 20 uM. Parasite motility after compound treatment was assessed at 72 h using the WHO-TDR scoring metric.; format: functional, organism-based; design: test concentration 20 uM, temperature 37 degree C; conditions: Puerto Rican

Compound | In vitro activity (Schistosoma mansoni [1]) | Ex-vivo screening (Schistosoma mansoni [2]) | EC50 (Schistosoma mansoni [1])
COc1cccc(CNc2nnc(-c3c[nH]c4ncccc34)o2)c1 | Active | inactive | –
Cc1cn(-c2ccc(Nc3ncn(Cc4ccc(Cl)cc4)n3)cc2C#N)cn1 | Active | inactive | –
COc1cc(OC)c(CCNC(=O)c2cn3cc(-c4cc(OCCO)ccc4OC)nc3s2)c(OC)c1 | Active | inactive | –
COc1cc(Nc2cn(Cc3ccc(Oc4ccccc4)cc3)nn2)ccc1-n1cnc(C)c1 | Active | inactive | –
CN(C)C(=O)/C=C/C(=O)c1ccc(SCc2ccc(Cl)cc2Cl)cc1 | Active | inactive | –
COc1ccc(OCCCO)cc1-c1cn2cc(-c3nnc(NCCCCc4ccccc4)o3)ccc2n1 | Active | inactive | –
CNS(=O)(=O)c1ccccc1Nc1nc(Nc2cc(OC)c(OC)cc2C)ncc1Br | Active | inactive | –
O=C(C1CCCCC1)N1CC(=O)N2CCc3ccccc3[C@@H]2C1 | Active | inactive | –
CNS(=O)(=O)c1ccccc1Nc1nc(Nc2ccc(N3CCOCC3)cc2OC)ncc1Br | Active | inactive | –
CCOc1cc(CCNC(=O)C[C@H]2S[C@@H](c3ccc(C#Cc4ccccc4)cc3)N(c3cccc(C(N)=O)c3)C2=O)ccc1OC | Active | inactive | –
COCc1cc(-c2nc(-c3ccc(CNCC(=O)O)c(F)c3)no2)ccc1-c1ccccc1F | Active | inactive | –
COc1ccc(OC)c(CCNC(=O)c2ccc3nc(-c4cc(OCCCO)ccc4OC)cn3c2)c1 | Active | inactive | –
COc1ccc(OCCCO)cc1-c1cn2cc(C(=O)NCCc3c(OC)cccc3OC)sc2n1 | Active | inactive | –
COc1ccc(CNc2nc3c(ccc4[nH]c(=O)c(C#N)cc43)s2)cc1 | – | Active | 4.35 µM (active)
COc1cc(OC)c(CCNC(=O)c2cn3cc(-c4cc(OC)ccc4OC)nc3s2)c(OC)c1 | Active | inactive | –
